Test results taken from publication PMC3388095, “Fluorophore Labeled Kinase Detects Ligands That Bind within the MAPK Insert of p38α Kinase” (PLoS ONE, 2012).

Columns and labels:
Assay in all cases: Kinase selectivity profile, 33P-ATP filter-binding assay
Assay type in all cases: biochemical
DYRK2 = DYRK2 (Homo sapiens, UniProt Q92630)
Procedure, shortened: (§1)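 Single-point profiling at 10 µM compound in a radioactive filter-binding assay with 33P-ATP, part of a 95-kinase panel. Values are remaining kinase activity in %.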

TTK = TTK (Homo sapiens, UniProt P33981)
Procedure, shortened: as §1

PKD1 = PKD1 (Homo sapiens, UniProt Q15139)
Procedure, shortened: as §1

Lck = Lck (Homo sapiens, UniProt P06239)
Procedure, shortened: as §1

IR-HIS = IR-HIS (Homo sapiens, UniProt P06213)
Procedure, shortened: as §1

Sequence of IR-HIS (P06213 28-1382): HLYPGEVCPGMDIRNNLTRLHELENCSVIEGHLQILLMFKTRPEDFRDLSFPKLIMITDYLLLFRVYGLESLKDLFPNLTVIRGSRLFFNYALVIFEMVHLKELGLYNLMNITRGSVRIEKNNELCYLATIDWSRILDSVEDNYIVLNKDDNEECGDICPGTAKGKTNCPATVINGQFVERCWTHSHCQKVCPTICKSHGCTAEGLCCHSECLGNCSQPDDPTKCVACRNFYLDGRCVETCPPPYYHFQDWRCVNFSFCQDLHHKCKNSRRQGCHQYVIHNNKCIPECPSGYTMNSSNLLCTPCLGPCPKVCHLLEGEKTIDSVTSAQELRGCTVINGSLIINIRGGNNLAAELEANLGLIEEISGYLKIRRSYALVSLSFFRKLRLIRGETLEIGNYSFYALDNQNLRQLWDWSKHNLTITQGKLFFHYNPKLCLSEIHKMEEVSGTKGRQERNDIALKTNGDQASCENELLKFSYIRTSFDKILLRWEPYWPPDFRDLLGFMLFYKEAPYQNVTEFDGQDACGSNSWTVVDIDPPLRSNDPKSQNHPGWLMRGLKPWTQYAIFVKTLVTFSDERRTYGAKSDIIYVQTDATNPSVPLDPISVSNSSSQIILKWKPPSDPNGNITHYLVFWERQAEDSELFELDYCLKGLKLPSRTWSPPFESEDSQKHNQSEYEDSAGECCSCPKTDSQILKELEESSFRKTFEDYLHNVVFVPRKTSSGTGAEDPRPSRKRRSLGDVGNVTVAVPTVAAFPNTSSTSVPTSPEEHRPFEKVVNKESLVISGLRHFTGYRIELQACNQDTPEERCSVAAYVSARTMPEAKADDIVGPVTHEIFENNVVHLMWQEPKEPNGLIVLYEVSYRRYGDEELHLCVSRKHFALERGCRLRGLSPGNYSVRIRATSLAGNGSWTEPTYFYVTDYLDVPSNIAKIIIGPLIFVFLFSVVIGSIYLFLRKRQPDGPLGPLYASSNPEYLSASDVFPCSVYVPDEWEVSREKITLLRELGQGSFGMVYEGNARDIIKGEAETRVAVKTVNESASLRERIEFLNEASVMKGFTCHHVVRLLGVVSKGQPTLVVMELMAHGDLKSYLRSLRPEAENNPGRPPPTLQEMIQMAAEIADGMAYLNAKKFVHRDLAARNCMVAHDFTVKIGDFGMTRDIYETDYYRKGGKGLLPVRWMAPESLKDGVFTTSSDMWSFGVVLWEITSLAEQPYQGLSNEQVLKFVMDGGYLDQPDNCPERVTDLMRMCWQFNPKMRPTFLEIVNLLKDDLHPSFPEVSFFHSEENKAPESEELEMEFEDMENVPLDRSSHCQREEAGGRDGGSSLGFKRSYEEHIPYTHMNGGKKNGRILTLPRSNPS
Sequence of PKD1 (Q15139 whole entry): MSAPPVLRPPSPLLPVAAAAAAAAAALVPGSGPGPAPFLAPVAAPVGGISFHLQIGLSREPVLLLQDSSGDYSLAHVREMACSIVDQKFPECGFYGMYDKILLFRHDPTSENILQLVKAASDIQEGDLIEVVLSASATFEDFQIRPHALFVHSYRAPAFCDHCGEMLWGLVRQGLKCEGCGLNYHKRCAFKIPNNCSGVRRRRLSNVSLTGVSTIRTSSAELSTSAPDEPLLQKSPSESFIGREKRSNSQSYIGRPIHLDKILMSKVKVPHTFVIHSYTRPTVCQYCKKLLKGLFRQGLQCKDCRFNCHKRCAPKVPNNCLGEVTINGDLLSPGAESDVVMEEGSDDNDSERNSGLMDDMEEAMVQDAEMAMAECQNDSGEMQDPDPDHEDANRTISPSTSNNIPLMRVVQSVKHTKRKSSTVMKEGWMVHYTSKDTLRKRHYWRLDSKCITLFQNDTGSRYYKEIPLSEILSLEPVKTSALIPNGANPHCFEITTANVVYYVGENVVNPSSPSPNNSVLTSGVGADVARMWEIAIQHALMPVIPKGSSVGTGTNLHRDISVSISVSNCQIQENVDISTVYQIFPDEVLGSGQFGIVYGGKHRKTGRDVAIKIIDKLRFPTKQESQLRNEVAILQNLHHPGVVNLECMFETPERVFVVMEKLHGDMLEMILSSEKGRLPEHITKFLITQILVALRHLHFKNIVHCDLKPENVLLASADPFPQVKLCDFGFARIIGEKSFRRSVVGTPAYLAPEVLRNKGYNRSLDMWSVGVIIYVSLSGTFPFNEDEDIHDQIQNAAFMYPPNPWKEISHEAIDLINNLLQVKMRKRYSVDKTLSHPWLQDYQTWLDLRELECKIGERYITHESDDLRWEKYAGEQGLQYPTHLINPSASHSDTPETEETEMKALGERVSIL
Sequence of DYRK2 (Q92630 whole entry): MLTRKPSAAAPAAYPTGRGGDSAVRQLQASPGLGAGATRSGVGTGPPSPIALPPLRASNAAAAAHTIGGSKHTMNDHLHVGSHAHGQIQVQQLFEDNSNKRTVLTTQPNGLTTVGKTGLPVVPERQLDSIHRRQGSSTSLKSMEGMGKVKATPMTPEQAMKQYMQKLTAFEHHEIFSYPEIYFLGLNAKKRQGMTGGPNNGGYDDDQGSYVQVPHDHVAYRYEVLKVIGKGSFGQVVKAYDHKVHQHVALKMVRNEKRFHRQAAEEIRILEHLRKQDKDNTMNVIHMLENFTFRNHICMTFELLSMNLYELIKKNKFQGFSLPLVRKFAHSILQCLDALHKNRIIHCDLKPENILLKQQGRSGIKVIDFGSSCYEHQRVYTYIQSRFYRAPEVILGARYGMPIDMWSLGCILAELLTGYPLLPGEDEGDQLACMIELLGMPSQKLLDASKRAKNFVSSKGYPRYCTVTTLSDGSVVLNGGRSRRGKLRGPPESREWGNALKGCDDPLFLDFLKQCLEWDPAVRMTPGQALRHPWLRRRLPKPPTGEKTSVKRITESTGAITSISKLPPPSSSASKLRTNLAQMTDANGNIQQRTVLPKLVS
Sequence of Lck (P06239 whole entry): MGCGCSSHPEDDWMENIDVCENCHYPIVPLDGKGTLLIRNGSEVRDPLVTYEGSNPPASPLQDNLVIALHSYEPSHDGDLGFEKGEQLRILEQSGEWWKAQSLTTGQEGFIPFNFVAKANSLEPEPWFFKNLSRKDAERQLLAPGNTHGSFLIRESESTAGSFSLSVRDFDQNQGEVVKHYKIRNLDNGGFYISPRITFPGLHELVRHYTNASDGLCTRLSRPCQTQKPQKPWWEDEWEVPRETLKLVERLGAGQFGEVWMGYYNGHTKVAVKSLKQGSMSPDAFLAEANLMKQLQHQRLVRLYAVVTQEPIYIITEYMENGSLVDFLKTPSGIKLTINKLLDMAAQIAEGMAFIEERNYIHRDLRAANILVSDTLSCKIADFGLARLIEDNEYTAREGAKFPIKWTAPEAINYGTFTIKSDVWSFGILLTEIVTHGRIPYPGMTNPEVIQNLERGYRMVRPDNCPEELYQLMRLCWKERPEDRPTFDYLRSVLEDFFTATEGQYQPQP
Sequence of TTK (P33981 whole entry): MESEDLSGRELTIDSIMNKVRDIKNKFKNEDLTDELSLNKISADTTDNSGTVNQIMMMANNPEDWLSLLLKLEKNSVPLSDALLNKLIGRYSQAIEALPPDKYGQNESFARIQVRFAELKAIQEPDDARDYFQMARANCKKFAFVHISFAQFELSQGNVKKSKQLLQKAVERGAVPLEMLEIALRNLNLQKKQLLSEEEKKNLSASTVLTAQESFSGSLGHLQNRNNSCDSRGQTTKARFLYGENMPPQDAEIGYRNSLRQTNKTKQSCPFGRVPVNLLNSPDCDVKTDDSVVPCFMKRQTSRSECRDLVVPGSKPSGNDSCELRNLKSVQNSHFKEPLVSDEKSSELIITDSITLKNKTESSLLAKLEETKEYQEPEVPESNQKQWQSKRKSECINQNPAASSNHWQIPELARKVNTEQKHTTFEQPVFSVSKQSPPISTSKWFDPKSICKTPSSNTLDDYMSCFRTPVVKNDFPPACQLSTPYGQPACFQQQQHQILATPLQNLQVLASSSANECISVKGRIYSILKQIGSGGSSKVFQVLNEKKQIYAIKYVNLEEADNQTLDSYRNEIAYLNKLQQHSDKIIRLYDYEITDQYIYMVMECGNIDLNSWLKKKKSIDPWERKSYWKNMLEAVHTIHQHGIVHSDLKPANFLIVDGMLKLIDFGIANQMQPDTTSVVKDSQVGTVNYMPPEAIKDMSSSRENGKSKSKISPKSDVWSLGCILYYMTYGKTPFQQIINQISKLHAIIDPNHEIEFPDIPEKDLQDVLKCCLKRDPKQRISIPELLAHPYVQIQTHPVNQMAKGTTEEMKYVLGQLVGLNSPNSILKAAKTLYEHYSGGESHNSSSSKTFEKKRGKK

With `Nc1ccc2c(NC3CC3)nc(-c3ccccc3)nc2c1` [1b, N^4-Cyclopropyl-2-phenyl-4,7-quinazolinediamine] the remaining activity at 10 µM (DYRK2) was 88%, the remaining activity at 10 µM (TTK) was 92% and the remaining activity at 10 µM (PKD1) was 79%. It also gave a remaining activity at 10 µM (Lck) of 80% and a remaining activity at 10 µM (IR-HIS) of 87%.
